Data reported in ChEMBL document CHEMBL4610068, “Diterpenoids from the Root Bark of Pinus massoniana and Evaluation of Their Phosphodiesterase Type 4D Inhibitory Activity” (J Nat Prod, 2020).

Molecular target: 3',5'-cyclic-AMP phosphodiesterase 4D (Homo sapiens, UniProt Q08499)
Test: Inhibition of human PDE4D catalytic domain (86 to 413 residues) expressed in Escherichia coli BL21 (DE3) cells using [3H]cAMP as substrate measured after 30 mins by scintillation proximity assay

Sequence of 3',5'-cyclic-AMP phosphodiesterase 4D (Q08499 whole entry, the tested form may be a part): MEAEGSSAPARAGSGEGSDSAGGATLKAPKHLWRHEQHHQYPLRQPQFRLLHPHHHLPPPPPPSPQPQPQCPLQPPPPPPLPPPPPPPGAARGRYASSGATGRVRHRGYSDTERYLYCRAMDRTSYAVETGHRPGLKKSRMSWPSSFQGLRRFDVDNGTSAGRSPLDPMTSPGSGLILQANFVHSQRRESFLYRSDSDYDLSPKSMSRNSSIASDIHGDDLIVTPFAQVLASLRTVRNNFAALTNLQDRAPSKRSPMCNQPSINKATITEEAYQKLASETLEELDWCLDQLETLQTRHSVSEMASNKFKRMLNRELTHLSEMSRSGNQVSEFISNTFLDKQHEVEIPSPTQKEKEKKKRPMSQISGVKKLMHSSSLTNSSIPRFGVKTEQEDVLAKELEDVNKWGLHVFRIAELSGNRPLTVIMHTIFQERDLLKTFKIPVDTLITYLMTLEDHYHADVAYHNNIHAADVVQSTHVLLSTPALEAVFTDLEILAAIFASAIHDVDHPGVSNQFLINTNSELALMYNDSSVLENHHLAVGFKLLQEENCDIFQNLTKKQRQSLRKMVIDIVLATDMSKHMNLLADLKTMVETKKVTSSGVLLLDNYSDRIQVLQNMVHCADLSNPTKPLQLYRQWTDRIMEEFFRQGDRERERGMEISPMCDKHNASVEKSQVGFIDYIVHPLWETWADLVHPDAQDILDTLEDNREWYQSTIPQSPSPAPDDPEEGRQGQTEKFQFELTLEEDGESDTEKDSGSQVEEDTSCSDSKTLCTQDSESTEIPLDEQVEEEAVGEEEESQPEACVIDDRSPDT

IC50	Structure (SMILES)
3.3 µM	C=C(C)c1ccc2c(c1)CC[C@H]1[C@](C)(C(=O)O)CCC[C@]21C
2.8 µM	CC(C)C1=CC[C@H]2C(=CC[C@@H]3[C@]2(C)CCC[C@@]3(C)C(=O)O)C1=O
